Results on 1 molecule are retold here after US20100286024A1, “Insulinotropic compounds and uses thereof” (priority 2005, published 2010).

In series [1] the target is DPP-IV (Homo sapiens, UniProt P27487). Kind of series: Dipeptidyl Peptidase IV (DPP-IV) digestion, stability by RP-HPLC (Example 10). It counts as in vitro ADME.
Excerpt: (§1) Their stabilities were monitored by RP-HPLC, noting the disappearance of the intact sequence and appearance of a species missing the N terminal dipeptide or similar fragment.
Series [2] concerns DPP-IV. Described as above. It counts as in vitro ADME. The settings on record: DPP-IV (isolated peptidase); pH 7.5, 37° C., DPP-IV, 22 hr; new species at 3220 mu, loss of the His-Ala dimer; read-out: share hydrolyzed by DPP-IV within 22 hr.
Excerpt: as §1
The nature of series [3]: Control study: chemical stability in PBS/triethanolamine without DPP-IV. It counts as physicochemical. As to conditions: PBS/triethanolamine solution without DPP-IV, PBS/TEthA, pH 7.5, 37°, no DPP-IV, read-out: percentage of peptide remaining. As to the method: In the control study, peptides were incubated with PBS/triethanolamine solution in the absence of DPP-IV to measure their chemical stability.

The subject of series [4] is beta TC-6 cell line. Kind of series: Insulin release assay (insulin ELISA). The settings on record: for Insulin release: 5 mM glucose, 30 minutes, Beta-TC-6 cells, cells only 1.37-3.67. The format is cell-based, mouse. As to the method: This was derived from a pancreatic tumor (insulinoma) arising in a transgenic mouse.
Beta-TC-6 cells were purchased from A.T.C.C. (A.T.C.C. number CCL-11506; Manassas, Va., U.S.A.). Beta-TC-6 cells were cultured in Dulbecco's Modified Eagle's medium supplemented with 15% (v/v) heat-inactivated foetal bovine serum, 1% (v/v) glutamine, 0.45% (w/v) glucose and 0.15% (w/v) sodium bicarbonate at 37° C. in a humidified 5% CO2 atmosphere. Beta-TC-6 cells form islands and the monolayer never becomes confluent; cells were passaged at 70% confluence (7 days from seeding) at a subcultivation ratio of 1:4. The monolayer was disrupted from the surface of the culture flask with 0.25% (w/v) Trypsin-0.53 mM EDTA.
Beta-TC-6 cells were cultured in 12 well plates for between 4-8 days prior to use. Cells were cultured in Krebs-Ringer (10 mM Hepes, pH 7.4, 136 mM NaCl, 4.7 mM KCl and 1.25 mM MgSO4) supplemented with 5 mM glucose for 1 hr at 37° C. in a humidified 5% CO2 atmosphere. This medium was removed, cells washed with Krebs-Ringer. Beta-TC-6 cells were then cultured in 1 ml per well of Krebs-Ringer supplemented with 5 mM glucose and 0, 0.12, 0.6, 3 and 15 μM of peptide in duplicate for 30 minutes at 37° C. in a humidified 5% CO2 atmosphere. Medium was removed, diluted 1:5, and insulin concentration determined using an insulin ELISA kit (Mercodia, Uppsala, Sweden) according to the manufacturer's protocol. Beta-TC-6 cells were washed three times with ice-cold PBS and extracted into 0.5 ml lysis buffer (62.5 mM Tris, pH 7.5, and 1%, v/v, SDS) per well. Protein concentration was determined by Lowry assay. […] Only single-sided p values are shown.
For orientation: An ELISA detects its analyte on a solid surface through an enzyme-linked reagent.

Sequence of DPP-IV (Homo sapiens, UniProt P27487) (P27487 whole entry, species assumed): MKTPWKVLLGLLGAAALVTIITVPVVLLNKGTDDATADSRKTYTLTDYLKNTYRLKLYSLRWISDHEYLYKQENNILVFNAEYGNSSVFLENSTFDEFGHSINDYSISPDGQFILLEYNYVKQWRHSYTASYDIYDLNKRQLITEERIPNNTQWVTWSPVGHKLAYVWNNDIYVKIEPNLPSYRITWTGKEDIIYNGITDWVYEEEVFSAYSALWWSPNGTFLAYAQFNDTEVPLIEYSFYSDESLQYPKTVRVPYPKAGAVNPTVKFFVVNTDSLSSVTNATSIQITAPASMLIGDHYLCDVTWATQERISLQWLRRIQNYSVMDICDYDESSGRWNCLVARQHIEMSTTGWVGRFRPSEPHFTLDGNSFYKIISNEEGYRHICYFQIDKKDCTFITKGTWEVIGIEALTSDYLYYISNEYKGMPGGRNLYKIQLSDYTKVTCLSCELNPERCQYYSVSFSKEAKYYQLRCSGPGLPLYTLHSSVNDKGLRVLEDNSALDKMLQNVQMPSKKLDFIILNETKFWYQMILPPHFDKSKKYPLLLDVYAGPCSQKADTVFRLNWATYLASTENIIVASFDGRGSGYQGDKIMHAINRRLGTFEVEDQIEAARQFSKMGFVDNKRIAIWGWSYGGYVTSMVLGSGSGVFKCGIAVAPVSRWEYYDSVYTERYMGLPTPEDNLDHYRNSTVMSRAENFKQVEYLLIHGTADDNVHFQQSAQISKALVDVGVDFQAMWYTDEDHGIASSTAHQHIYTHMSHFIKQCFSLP

For the molecule `CC[C@H](C)[C@H](NC(=O)[C@H](Cc1ccccc1)NC(=O)[C@H](CCC(=O)O)NC(=O)[C@H](CCCCN)NC(=O)[C@H](C)NC(=O)[C@H](C)NC(=O)[C@H](CCC(N)=O)NC(=O)CNC(=O)[C@H](CCC(=O)O)NC(=O)[C@H](CC(C)C)NC(=O)[C@H](Cc1ccc(O)cc1)NC(=O)[C@H](CO)NC(=O)[C@H](CO)NC(=O)[C@@H](NC(=O)[C@H](CC(=O)O)NC(=O)[C@H](CO)NC(=O)[C@@H](NC(=O)[C@H](Cc1ccccc1)NC(=O)[C@@H](NC(=O)CNC(=O)[C@H](CCC(=O)O)NC(=O)CNNC(=O)[C@H](C)NC(=O)[C@@H](N)Cc1c[nH]cn1)[C@@H](C)O)[C@@H](C)O)C(C)C)C(=O)N[C@@H](C)C(=O)N[C@@H](Cc1c[nH]c2ccccc12)C(=O)N[C@@H](CC(C)C)C(=O)N[C@H](C(=O)N[C@@H](CCCCN)C(=O)NCC(=O)N[C@@H](CCCNC(=N)N)C(=O)NCC(=O)O)C(C)C` [SP007, L-His-L-Ala-NH—NH—CH2—C(O)-Glu9-37], the fraction remaining (as a rule, what is left of the initial amount, in per cent) at 22 h in series [1] (DPP-IV (isolated peptidase), PBS/TEthA, pH 7.5, 37°, DPP-IV, 22 hr, read-out: percentage of analogue remaining) was under 5%; in series [3] (22 hr) it was 95%. Further, the amount remaining at 47 h is under 5% in series [1] (DPP-IV (isolated peptidase), PBS/TEthA, pH 7.5, 37°, DPP-IV, 47 hr, read-out: percentage of analogue remaining) and 95% in series [3] (47 hr). In addition, in series [1] (pH 7.5, 37° C., up to 47 hr), the “susceptibility to DPP-IV hydrolysis” value is “susceptible to DPP-IV hydrolysis”. The metabolised at 22 h in series [2] was over 90%. Also, the Insulin release in series [4] (3 μM peptide) stood at 4.51 ng/min/mg; in series [4] (15 μM peptide), 8.08 ng/min/mg. Further, in series [4] (3 μM peptide, cells alone=100%), the “Activity of 3 μM of each peptide as percentage of insulin release by cells only” value is listed as 113 ± 65%. In addition, in series [4] (15 μM peptide, cells alone=100%), the “Activity of 15 μM of each peptide as percentage of insulin release by cells only” value was 235 ± 91%.
